PubChem BioAssay (NCI)
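Abbreviation: GI50, concentration required for 50% inhibition of growth. TGI: concentration producing complete growth inhibition.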

Tests used:
Assay in all cases: NCI anticancer screen, dose series, 384-well format; in the data active = GI50 below about 0.43 µM; inactive = the rest
786-0 renal = tested on: 786-0 renal
A549 NSCLC = tested on: A549 NSCLC
BT-549 breast = tested on: BT-549 breast
CCRF-CEM leukemia = tested on: CCRF-CEM leukemia
COLO 205 colon = tested on: COLO 205 colon
DU-145 prostate = tested on: DU-145 prostate
EKVX NSCLC = tested on: EKVX NSCLC
HCC-2998 colon = tested on: HCC-2998 colon
HOP-62 NSCLC = tested on: HOP-62 NSCLC
HOP-92 NSCLC = tested on: HOP-92 NSCLC
HS 578T breast = tested on: HS 578T breast
HT29 colon = tested on: HT29 colon
IGROV1 ovarian = tested on: IGROV1 ovarian
K-562 leukemia = tested on: K-562 leukemia
KM12 colon = tested on: KM12 colon
LOX IMVI melanoma = tested on: LOX IMVI melanoma
M14 melanoma = tested on: M14 melanoma
MALME-3M melanoma = tested on: MALME-3M melanoma
MCF7 breast = tested on: MCF7 breast
MDA-MB-231 breast = tested on: MDA-MB-231 breast
MDA-MB-468 breast = tested on: MDA-MB-468 breast
MOLT-4 leukemia = tested on: MOLT-4 leukemia
NCI-H226 lung = tested on: NCI-H226 lung
NCI-H23 lung = tested on: NCI-H23 lung
NCI-H460 NSCLC = tested on: NCI-H460 NSCLC
NCI/ADR-RES ovarian = tested on: NCI/ADR-RES ovarian
OVCAR-3 ovarian = tested on: OVCAR-3 ovarian
OVCAR-4 ovarian = tested on: OVCAR-4 ovarian
OVCAR-5 ovarian = tested on: OVCAR-5 ovarian
OVCAR-8 ovarian = tested on: OVCAR-8 ovarian
PC-3 prostate = tested on: PC-3 prostate
RPMI-8226 leukemia = tested on: RPMI-8226 leukemia
RXF 393 renal = tested on: RXF 393 renal
SF-268 CNS = tested on: SF-268 CNS
SK-MEL-2 melanoma = tested on: SK-MEL-2 melanoma
SK-MEL-28 melanoma = tested on: SK-MEL-28 melanoma
SK-MEL-5 melanoma = tested on: SK-MEL-5 melanoma
SK-OV-3 ovarian = tested on: SK-OV-3 ovarian
SN12C renal = tested on: SN12C renal
SNB-19 CNS = tested on: SNB-19 CNS
SNB-75 CNS = tested on: SNB-75 CNS
SR leukemia = tested on: SR leukemia
T-47D breast = tested on: T-47D breast
TK-10 renal = tested on: TK-10 renal
U251 glioblastoma = tested on: U251 glioblastoma
UACC-257 melanoma = tested on: UACC-257 melanoma
UO-31 renal = tested on: UO-31 renal

Nc1nc2cc(-c3ccc4ncc(C(=O)N5CCOCC5)n4c3)ccc2o1
> 92.3 µM: TGI (MDA-MB-468 breast)
4.55 µM: TGI (RPMI-8226 leukemia)
53.7 µM: TGI (TK-10 renal)
19.9 µM: TGI (MOLT-4 leukemia)
18.5 µM: TGI (HOP-92 NSCLC)
> 75 µM: TGI (SNB-75 CNS)
> 100 µM: TGI (786-0 renal) | TGI (A549 NSCLC) | TGI (BT-549 breast) | TGI (CCRF-CEM leukemia) | TGI (COLO 205 colon) | TGI (DU-145 prostate) | TGI (EKVX NSCLC) | TGI (HCC-2998 colon) | TGI (HOP-62 NSCLC) | TGI (HT29 colon) | TGI (K-562 leukemia) | TGI (KM12 colon) | TGI (LOX IMVI melanoma) | TGI (M14 melanoma) | TGI (MCF7 breast) | TGI (MDA-MB-231 breast) | TGI (NCI-H226 lung) | TGI (NCI-H23 lung) | TGI (NCI-H460 NSCLC) | TGI (NCI/ADR-RES ovarian) | TGI (OVCAR-3 ovarian) | TGI (OVCAR-4 ovarian) | TGI (OVCAR-5 ovarian) | TGI (OVCAR-8 ovarian) | TGI (PC-3 prostate) | TGI (RXF 393 renal) | TGI (SF-268 CNS) | TGI (SK-MEL-2 melanoma) | TGI (SK-MEL-28 melanoma) | TGI (SN12C renal) | TGI (SNB-19 CNS) | TGI (SR leukemia) | TGI (U251 glioblastoma) | TGI (UACC-257 melanoma) | TGI (UO-31 renal)
3.14 µM: TGI (T-47D breast)
> 68.5 µM: TGI (MALME-3M melanoma)
66.2 µM: TGI (HS 578T breast)
5.23 µM: TGI (IGROV1 ovarian)
12.3 µM: TGI (SK-OV-3 ovarian)
> 59.6 µM: TGI (SK-MEL-5 melanoma)
inactive: GI50 ([…]-0 renal) > 75.6 µM | GI50 (A549 NSCLC) 9.11 µM | GI50 (BT-549 breast) 23.7 µM | GI50 (CCRF-CEM leukemia) 7.44 µM | GI50 (COLO 205 colon) 10.2 µM | GI50 (DU-145 prostate) 21.3 µM | GI50 (EKVX NSCLC) 5.01 µM | GI50 (HCC-2998 colon) 12.4 µM | GI50 (HOP-62 NSCLC) > 26.4 µM | GI50 (HOP-92 NSCLC) 2.2 µM | GI50 (HS 578T breast) 6.07 µM | GI50 (HT29 colon) 8.1 µM | GI50 (IGROV1 ovarian) 1.85 µM | GI50 (K-562 leukemia) > 86 µM | GI50 (KM12 colon) 28.7 µM | GI50 (LOX IMVI melanoma) 19.5 µM | GI50 (M14 melanoma) 11.6 µM | GI50 (MALME-3M melanoma) 2.78 µM | GI50 (MCF7 breast) 1.45 µM | GI50 (MDA-MB-231 breast) 9.02 µM | GI50 (MDA-MB-468 breast) 3.93 µM | GI50 (MOLT-4 leukemia) 3.45 µM | GI50 (NCI-H226 lung) > 40.4 µM | GI50 (NCI-H23 lung) 5.59 µM | GI50 (NCI-H460 NSCLC) 2.77 µM | GI50 (NCI/ADR-RES ovarian) > 100 µM | GI50 (OVCAR-3 ovarian) 7.73 µM | GI50 (OVCAR-4 ovarian) > 40.7 µM | GI50 (OVCAR-5 ovarian) 7.68 µM | GI50 (OVCAR-8 ovarian) > 78.2 µM | GI50 (PC-3 prostate) 5.45 µM | GI50 (RPMI-8226 leukemia) 1.58 µM | GI50 (RXF 393 renal) 40.2 µM | GI50 (SF-268 CNS) 35.1 µM | GI50 (SK-MEL-2 melanoma) 30 µM | GI50 (SK-MEL-28 melanoma) > 57.6 µM | GI50 (SK-MEL-5 melanoma) 5.97 µM | GI50 (SK-OV-3 ovarian) 2.09 µM | GI50 (SN12C renal) 7.67 µM | GI50 (SNB-19 CNS) > 73.8 µM | GI50 (SNB-75 CNS) 10.2 µM | GI50 (SR leukemia) 12.2 µM | GI50 (T-47D breast) 0.574 µM | GI50 (TK-10 renal) 5.17 µM | GI50 (U251 glioblastoma) > 74.7 µM | GI50 (UACC-257 melanoma) > 100 µM | GI50 (UO-31 renal) 8.62 µM
